In this test the target is CCR8 (Homo sapiens, UniProt P51685). In words: Tango assay (Tango-CCR8-Gal4-CHO-K1 cells, CCL1-stimulated, ONE-Glo luminescence).
[1] abbreviates: Tango Assay IC50, Inhibition of CCR8 Tango cell in vitro.

Drawing on patent US12552753B2, “Methods and compositions for targeting Tregs using CCR8 inhibitors” (Nanjing Immunophage Biomedical Co., Ltd., priority 2020, dated 2026), this text covers IC50 for 35 molecules.

pIC50: −log10 of the molar value. Where a name gives a salt, the structure may show the parent alone. Read-outs that look alike come from different tables or passages of the source.

CCR8, sequence (P51685 whole entry, the tested form may be a part): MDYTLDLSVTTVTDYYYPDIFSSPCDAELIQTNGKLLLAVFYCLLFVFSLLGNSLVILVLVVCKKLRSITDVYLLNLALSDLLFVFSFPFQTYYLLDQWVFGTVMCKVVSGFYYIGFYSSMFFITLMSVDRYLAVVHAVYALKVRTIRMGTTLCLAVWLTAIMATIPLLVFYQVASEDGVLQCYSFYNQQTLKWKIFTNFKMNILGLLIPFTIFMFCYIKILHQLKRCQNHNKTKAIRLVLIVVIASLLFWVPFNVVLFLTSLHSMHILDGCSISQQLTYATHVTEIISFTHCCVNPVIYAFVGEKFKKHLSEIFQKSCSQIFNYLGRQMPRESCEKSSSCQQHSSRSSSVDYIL

`Cc1cc(S(=O)(=O)N[C@H](C)C2CCNCC2)ccc1NC(=O)Cc1ccccc1` [Compound 207A, (R)-N-(2-methyl-4-(N-(1-(piperidin-4-yl)ethyl)sulfamoyl)phenyl)-2-phenylacetamide hydrochloride] had a pIC50 under setting [1] of 7.40.

Turning to `Cc1cc(S(=O)(=O)N[C@H](C)C2CCNCC2)ccc1NC(=O)C1CCCCC1` [Compound 208A, (R)-N-(2-methyl-4-(N-(1-(piperidin-4-yl)ethyl)sulfamoyl)phenyl) cyclohexanecarboxamide hydrochloride], the pIC50 under setting [1] is 7.26.

With `Cc1cc(S(=O)(=O)N[C@H](C)C2CCNCC2)ccc1NC(=O)C(C)(C)C` [Compound 209A, (R)-N-(2-methyl-4-(N-(1-(piperidin-4-yl)ethyl)sulfamoyl)phenyl)pivalamide hydrochloride], the pIC50 under setting [1] is 5.96.

`Cc1cc(S(=O)(=O)N[C@H](C)C2CCNCC2)ccc1NC(=O)c1cccs1` [Compound 210A, (R)-N-(2-methyl-4-(N-(1-(piperidin-4-yl)ethyl)sulfamoyl)phenyl)thiophene-2-carboxamide hydrochloride] showed a pIC50 under setting [1] of 6.79.

For `Cc1cc(S(=O)(=O)N[C@H](C)C2CCNCC2)ccc1NC(=O)c1ccsc1` [Compound 211A, (R)-N-(2-methyl-4-(N-(1-(piperidin-4-yl)ethyl)sulfamoyl)phenyl)thiophene-3-carboxamide hydrochloride], under setting [1], the pIC50 was 7.02.

Consider `Cc1cc(S(=O)(=O)N[C@H](C)C2CCNCC2)ccc1NC(=O)C1CCOCC1` [Compound 212A, (R)-N-(2-methyl-4-(N-(1-(piperidin-4-yl)ethyl)sulfamoyl)phenyl)tetrahydro-2H-pyran-4-carboxamide hydrochloride], for which, under setting [1], the pIC50 is 5.60.

Under setting [1], `Cc1ccccc1C(=O)Nc1ccc(S(=O)(=O)NC(C)CC2CCN(C)CC2)c2ccccc12` (centres unmarked) [Compound 214, 2-methyl-N-(4-(N-(1-(1-methylpiperidin-4-yl)propan-2-yl)sulfamoyl)naphthalen-1-yl)benzamide] gave a pIC50 of less than 5.00.

Consider `Cc1ccccc1C(=O)Nc1c(C)cc(S(=O)(=O)N[C@H](C)C2CCN(C)CC2)cc1Cl` [Compound 220, (R)-N-(2-chloro-6-methyl-4-(N-(1-(1-methylpiperidin-4-yl)ethyl)sulfamoyl)phenyl)-2-methylbenzamide], for which the pIC50 (read-out: Tango Assay IC50, Inhibition of CCR8 Tango cell in vitro) was 9.00.

`Cc1ccccc1C(=O)Nc1ccc(S(=O)(=O)N[C@H](C)C2CCN(C)CC2)cc1C#N` [Compound 221, (R)-N-(2-cyano-4-(N-(1-(1-methylpiperidin-4-yl)ethyl)sulfamoyl)phenyl)-2-methylbenzamide] showed a pIC50 under setting [1] of 7.62.

Turning to `Cc1ccccc1NC(=O)c1ccc(S(=O)(=O)N[C@H](C)C2CCN(C)CC2)cc1C` [Compound 222, (R)-2-methyl-4-(N-(1-(1-methylpiperidin-4-yl)ethyl)sulfamoyl)-N-(o-tolyl)benzamide], the pIC50 under setting [1] is 6.44.

Under setting [1], `CCC(NS(=O)(=O)c1ccc(NC(=O)c2ccccc2C)c(C)c1)C1CCNCC1` (centres unmarked) [Compound 223A, 2-methyl-N-(2-methyl-4-(N-(1-(piperidin-4-yl)propyl)sulfamoyl)phenyl)benzamide hydrochloride] had a pIC50 of 7.14.

`Cc1cc(S(=O)(=O)NC(C(C)C)C2CCNCC2)ccc1NC(=O)c1ccccc1C` (centres unmarked) [Compound 224A, 2-methyl-N-(2-methyl-4-(N-(2-methyl-1-(piperidin-4-yl)propyl)sulfamoyl)phenyl)benzamide hydrochloride] gave a pIC50 under setting [1] of 6.31.

Turning to `Cc1cc(S(=O)(=O)NC(C2CCNCC2)C2CC2)ccc1NC(=O)c1ccccc1C` (centres unmarked) [Compound 225A, N-(4-(N-(cyclopropyl (piperidin-4-yl)methyl)sulfamoyl)-2-methylphenyl)-2-methylbenzamide], the pIC50 under setting [1] was 7.60.

Regarding `Cc1cc(S(=O)(=O)NC(c2ccccc2)C2CCNCC2)ccc1NC(=O)c1ccccc1C` (centres unmarked) [Compound 227A, 2-methyl-N-(2-methyl-4-(N-(phenyl(piperidin-4-yl)methyl)sulfamoyl)phenyl)benzamide], the pIC50 under setting [1] was less than 4.00.

For `Cc1cc(S(=O)(=O)N[C@H](C)C2C[C@@H]3CCC2N3)ccc1NC(=O)c1ccccc1C` (stereo partly drawn) [Compound 228A, N-(4-(N-(1-(exo-7-azabicyclo[2.2.1]heptan-2-yl)ethyl)sulfamoyl)-2-methylphenyl)-2-methylbenzamide hydrochloride], the pIC50 under setting [1] is less than 4.00.

Take `Cc1ccccc1CNc1ccc(S(=O)(=O)N[C@H](C)C2CCN(C)CC2)cc1C` [Compound 229, (R)-3-methyl-4-((2-methylbenzyl)amino)-N-(1-(1-methylpiperidin-4-yl)ethyl)benzenesulfonamide]: the pIC50 under setting [1] is less than 4.00.

Under setting [1], `Cc1ccccc1C(=O)N(C)c1ccc(S(=O)(=O)N[C@H](C)C2CCNCC2)cc1C` [Compound 231A, (R)-N,2-dimethyl-N-(2-methyl-4-(N-(1-(piperidin-4-yl)ethyl)sulfamoyl)phenyl)benzamide hydrochloride] showed a pIC50 of 6.55.

`CCOC(=O)C(C)(C)C(C)NS(=O)(=O)c1ccc(NC(=O)c2ccccc2C)c(C)c1` (centres unmarked) [Compound 232, ethyl 2,2-dimethyl-3-(3-methyl-4-(2-methylbenzamido)phenylsulfonamido) butanoate] had a pIC50 under setting [1] of 6.16.

Molecule `Cc1cc(S(=O)(=O)NC(C)C(C)(C)CO)ccc1NC(=O)c1ccccc1C` (centres unmarked) [Compound 233, 3-((4-(N-(4-hydroxy-3,3-dimethylbutan-2-yl)sulfamoyl)-2-methylphenyl)carbamoyl)-2-methylbenzene-1-ylium] had a pIC50 under setting [1] of 6.05.

For the molecule `Cc1cc(S(=O)(=O)NC(CO)C2CCNCC2)ccc1NC(=O)c1ccccc1C` (centres unmarked) [Compound 234, N-(4-(N-(2-hydroxy-1-(piperidin-4-yl)ethyl)sulfamoyl)-2-methylphenyl)-2-methylbenzamide], under setting [1], the pIC50 was 5.85.

Turning to `Cc1cc(S(=O)(=O)N[C@H](C)C2CCNCC2)ccc1NC(=O)Nc1ccccc1` [Compound 236A, (R)-3-methyl-4-(3-phenylureido)-N-(1-(piperidin-4-yl)ethyl)benzenesulfonamide hydrochloride], under setting [1], the pIC50 was 6.80.

Under setting [1], `Cc1cc(S(=O)(=O)N(C)[C@H](C)C2CCNCC2)ccc1NC(=O)c1ccccc1C` [Compound 237A, (R)-2-methyl-N-(2-methyl-4-(N-methyl-N-(1-(piperidin-4-yl)ethyl)sulfamoyl)phenyl)benzamide hydrochloride] showed a pIC50 of less than 4.00.

The molecule `Cc1cc(S(=O)(=O)NCC2CCN(C)CC2)ccc1NC(=O)c1ccccc1C` [Compound 238, 2-methyl-N-(2-methyl-4-(N-((1-methylpiperidin-4-yl)methyl)sulfa-moyl)phenyl)benza-mide] showed a negative-log IC50 (pIC50) under setting [1] of 6.43.

On to `Cc1cc(S(=O)(=O)NC(C)C2CCOCC2)ccc1NC(=O)c1ccccc1C` (centres unmarked) [Compound 239, 2-methyl-N-(2-methyl-4-(N-(1-(tetrahydro-2H-pyran-4-yl)ethyl)sulfamoyl)phen-yl)benzamide], for which, under setting [1], the pIC50 is 6.07.

As to `COC(=O)C(NS(=O)(=O)c1ccc(NC(=O)c2ccccc2C)c(C)c1)C1CCNCC1` (centres unmarked) [Compound 240A, methyl 2-((3-methyl-4-(2-methylbenzamido)phen-yl)sulfonamido)-2-(piperidin-4-yl)acetate hydrochloride], under setting [1], the pIC50 is less than 4.00.

Molecule `Cc1cc(S(=O)(=O)NC(C)C23CCN(CC2)CC3)ccc1NC(=O)c1ccccc1C` (centres unmarked) [Compound 241, 2-methyl-N-(2-methyl-4-(N-(1-(quiuclidin-4-yl)ethyl)sulfamoyl)phen-yl)benzamide] gave a pIC50 under setting [1] of 6.59.

Under setting [1], `Cc1ccccc1C(=O)Nc1cc(F)c(S(=O)(=O)N[C@H](C)C2CCNCC2)cc1Cl` [Compound 242A, (R)-N-(2-chloro-5-fluoro-4-(N-(1-(piperidin-4-yl)eth-yl)sulfamoyl)phen-yl)-2-methylbenzamide hydrochloride] gave a pIC50 of 7.82.

Turning to `Cc1ccccc1C(=O)Nc1cc(F)c(S(=O)(=O)N[C@@H](C)C2CCNCC2)cc1Cl` [Compound 242B, (S)-N-(2-chloro-5-fluoro-4-(N-(1-(piperidin-4-yl)ethyl)sulfamoyl)phenyl)-2-methylbenzamide hydrochloride], the pIC50 under setting [1] was less than 4.00.

On to `Cc1ccccc1C(=O)Nc1cc(Cl)c(S(=O)(=O)N[C@H](C)C2CCNCC2)cc1Cl` [Compound 243A, (R)-N-(2,5-dichloro-4-(N-(1-(piperidin-4-yl)ethyl)sulfamoyl)phen-yl)-2-methylbenzamide hydrochloride], for which, under setting [1], the pIC50 was 7.92.

`Cc1ccccc1C(=O)Nc1cc(Cl)c(S(=O)(=O)N[C@@H](C)C2CCNCC2)cc1Cl` [Compound 243B, (S)-N-(2,5-dichloro-4-(N-(1-(piperidin-4-yl)ethyl)sulfamoyl)phen-yl)-2-methylbenzamide hydrochloride] showed a pIC50 under setting [1] of less than 4.00.

For `Cc1ccccc1C(=O)Nc1ccc(S(=O)(=O)N[C@H](C)C2CCNCC2)c(Cl)c1Cl` [Compound 244A, (R)-N-(2,3-dichloro-4-(N-(1-(piperidin-4-yl)ethyl)sulfamoyl)phen-yl)-2-methylbenzamide hydrochloride], the pIC50 under setting [1] was 6.98.

`Cc1ccccc1C(=O)Nc1ccc(S(=O)(=O)N[C@H](C)C2CCNCC2)c(C)c1Cl` [Compound 245A, (R)-N-(2-chloro-3-methyl-4-(N-(1-(piperidin-4-yl)ethyl)sulfamoyl)phen-yl)-2-methylbenzamide hydrochloride] gave a pIC50 under setting [1] of less than 4.00.

Molecule `Cc1ccccc1C(=O)Nc1ccc(S(=O)(=O)N[C@H](C)C2CCNCC2)c(F)c1Cl` [Compound 246A, (R)-N-(2-chloro-3-fluoro-4-(N-(1-(piperidin-4-yl)ethyl)sulfamoyl)phenyl)-2-methylbenzamide hydrochloride] gave a pIC50 under setting [1] of 7.10.

Turning to `Cc1cc(S(=O)(=O)N[C@H](C)C2CCN(C3CCCC3)CC2)ccc1NC(=O)c1ccccc1C` [Compound 247, (R)-N-(4-(N-(1-(1-cyclopentylpiperidin-4-yl)ethyl)sulfamoyl)-2-methylphenyl)-2-methylbenzamide], the pIC50 under setting [1] was 9.00.

As to `COC(=O)CN1CCC([C@@H](C)NS(=O)(=O)c2ccc(NC(=O)c3ccccc3C)c(C)c2)CC1` [Compound 248, methyl(R)-2-(4-(1-((3-methyl-4-(2-methylbenzamido)phenyl)sulfonamido)ethyl)piperidin-1-yl)acetate], under setting [1], the pIC50 was 6.98.

By pIC50 is commonly meant the negative decadic logarithm of the IC50, by convention in mol/L.
